One assay concerns the target T1, Ba/F3 cells with EGFR WT (Homo sapiens, UniProt P00533).
T1 construct: expressed in transfected cells; host or cells: Ba/F3 (murine pro-B cells), retroviral transduction, puromycin selection, maintained with EGF
The experiment in a line: EGFR activity: Ba/F3 cell viability (CellTiter-Glo, 72 h), EGFR WT. The class given is cell-based. To be noted: read-out: BaF3 WT IC50. A general note: ATP-based viability assays read luminescence as a measure of living cells.

Assay [1] concerns the target T2, Ba/F3 cells with EGFR exon 20 ASV Ins V769_D770 (Homo sapiens, UniProt P00533, INS769ASV).
T2 construct: expressed in transfected cells; host or cells: Ba/F3 (murine pro-B cells), retroviral transduction, puromycin selection, IL3-independent pool
Description: EGFR activity: Ba/F3 cell viability (CellTiter-Glo, 72 h), EGFR exon 20 ASV insertion. To be noted: EGFR exon 20 ASV Ins V769_D770, cell viability, read-out: BaF3 ASV IC50. The class given is cell-based.

T2 sequence (P00533 with tags, fused parts or gaps INS769ASV): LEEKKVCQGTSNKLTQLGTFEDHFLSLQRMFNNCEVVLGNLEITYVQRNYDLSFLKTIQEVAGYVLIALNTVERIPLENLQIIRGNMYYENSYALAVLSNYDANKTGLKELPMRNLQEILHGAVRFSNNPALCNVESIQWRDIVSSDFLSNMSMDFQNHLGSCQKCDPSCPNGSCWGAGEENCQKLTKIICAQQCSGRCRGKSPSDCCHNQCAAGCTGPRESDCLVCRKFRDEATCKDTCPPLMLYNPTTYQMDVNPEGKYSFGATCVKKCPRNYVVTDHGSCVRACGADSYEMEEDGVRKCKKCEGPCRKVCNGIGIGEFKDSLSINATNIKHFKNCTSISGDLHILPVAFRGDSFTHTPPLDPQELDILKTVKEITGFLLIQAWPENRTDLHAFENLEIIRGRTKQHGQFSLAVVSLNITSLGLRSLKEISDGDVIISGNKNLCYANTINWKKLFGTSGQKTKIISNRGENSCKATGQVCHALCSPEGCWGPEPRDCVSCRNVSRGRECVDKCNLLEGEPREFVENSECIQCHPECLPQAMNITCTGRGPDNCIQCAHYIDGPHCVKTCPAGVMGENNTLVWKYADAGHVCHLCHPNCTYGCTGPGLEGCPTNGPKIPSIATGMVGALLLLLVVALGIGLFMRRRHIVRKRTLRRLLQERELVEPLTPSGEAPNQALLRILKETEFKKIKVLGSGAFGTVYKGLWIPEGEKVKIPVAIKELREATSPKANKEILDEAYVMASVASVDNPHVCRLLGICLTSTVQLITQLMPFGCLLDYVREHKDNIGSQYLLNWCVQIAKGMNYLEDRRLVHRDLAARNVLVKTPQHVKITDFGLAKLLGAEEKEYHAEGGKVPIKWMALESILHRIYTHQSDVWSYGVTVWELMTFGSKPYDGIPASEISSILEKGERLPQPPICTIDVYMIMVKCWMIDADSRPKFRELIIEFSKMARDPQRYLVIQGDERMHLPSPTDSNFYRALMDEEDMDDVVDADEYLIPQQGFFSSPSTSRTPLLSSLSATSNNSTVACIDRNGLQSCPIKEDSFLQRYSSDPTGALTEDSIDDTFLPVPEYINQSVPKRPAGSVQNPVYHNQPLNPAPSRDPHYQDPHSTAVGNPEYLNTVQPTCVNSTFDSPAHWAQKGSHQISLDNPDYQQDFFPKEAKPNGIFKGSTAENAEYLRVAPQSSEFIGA
T1 sequence (P00533 25-1210): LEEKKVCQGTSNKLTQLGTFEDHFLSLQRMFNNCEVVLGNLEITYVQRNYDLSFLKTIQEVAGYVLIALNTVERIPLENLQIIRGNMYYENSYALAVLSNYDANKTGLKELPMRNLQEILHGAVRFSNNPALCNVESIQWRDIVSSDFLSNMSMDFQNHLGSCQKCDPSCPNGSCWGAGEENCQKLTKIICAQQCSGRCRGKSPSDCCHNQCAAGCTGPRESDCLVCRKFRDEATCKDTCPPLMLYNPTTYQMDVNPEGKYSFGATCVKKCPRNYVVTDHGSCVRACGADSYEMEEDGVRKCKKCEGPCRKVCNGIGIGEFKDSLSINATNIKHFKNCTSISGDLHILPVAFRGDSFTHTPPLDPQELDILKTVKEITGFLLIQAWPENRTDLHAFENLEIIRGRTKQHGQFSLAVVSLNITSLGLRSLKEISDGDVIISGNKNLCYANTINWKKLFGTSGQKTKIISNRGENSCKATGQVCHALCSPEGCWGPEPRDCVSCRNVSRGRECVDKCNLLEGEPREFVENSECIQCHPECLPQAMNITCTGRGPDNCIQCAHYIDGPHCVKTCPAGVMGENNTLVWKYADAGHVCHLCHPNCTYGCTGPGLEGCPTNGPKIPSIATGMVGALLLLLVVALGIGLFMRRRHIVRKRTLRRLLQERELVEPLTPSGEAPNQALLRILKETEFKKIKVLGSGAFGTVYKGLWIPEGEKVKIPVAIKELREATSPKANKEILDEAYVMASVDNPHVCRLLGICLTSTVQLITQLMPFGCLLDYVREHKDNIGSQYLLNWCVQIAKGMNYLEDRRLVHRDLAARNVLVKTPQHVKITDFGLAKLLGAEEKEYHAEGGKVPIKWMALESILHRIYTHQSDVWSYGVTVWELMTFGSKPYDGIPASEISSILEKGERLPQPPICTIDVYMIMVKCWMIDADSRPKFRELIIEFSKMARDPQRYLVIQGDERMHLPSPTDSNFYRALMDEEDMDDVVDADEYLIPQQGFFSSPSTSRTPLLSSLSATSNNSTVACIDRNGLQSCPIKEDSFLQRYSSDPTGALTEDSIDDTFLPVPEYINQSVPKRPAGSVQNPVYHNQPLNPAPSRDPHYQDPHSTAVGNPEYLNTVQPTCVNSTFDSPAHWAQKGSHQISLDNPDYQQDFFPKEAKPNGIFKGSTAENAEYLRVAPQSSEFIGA

The term IC50 denotes the concentration needed to halve the response being measured. On to `COCC#Cc1cnccc1-c1[nH]c2c(c1Nc1cccc(F)c1C)C(=O)NCC2` [compound 500], for which the figures for the IC50 (on Ba/F3 cells with EGFR WT; in assay [1]) were above 1 µM and 0.1 to 1 µM, respectively.

Regarding `COc1cccnc1C#Cc1cnccc1-c1[nH]c2c(c1Nc1cccc(F)c1C)C(=O)NCC2` [compound 503], the IC50 (at Ba/F3 cells with EGFR WT; in assay [1]) was 0.1 to 1 µM in each case.

Turning to `Cc1c(F)cccc1Nc1c(-c2ccncc2C#CC2CCOCC2)[nH]c2c1C(=O)NCC2` [compound 504], the figures for the concentration for half-maximal inhibition (IC50) (at Ba/F3 cells with EGFR WT; in assay [1]) were above 1 µM and 0.1 to 1 µM, respectively.

On to `COc1c(F)cccc1Nc1c(-c2ccncc2C#C[C@@H]2CCC[C@@H]2OC)[nH]c2c1C(=O)NCC2` [compound 486], for which the IC50 at Ba/F3 cells with EGFR WT is above 1 µM; in assay [1] it was 0.1 to 1 µM.

Take `Cc1c(F)cccc1Nc1c(-c2ccncc2C#CC2CCOC2)[nH]c2c1C(=O)NCC2` (stereo not drawn) [compound 508]: the IC50 at Ba/F3 cells with EGFR WT was above 1 µM; in assay [1] it was 0.1 to 1 µM.

In the case of `COc1ccccc1C#Cc1cnccc1-c1[nH]c2c(c1Nc1cccc(F)c1C)C(=O)NCC2` [compound 501], the figures for the IC50 (on Ba/F3 cells with EGFR WT; in assay [1]) were 0.1 to 1 µM and below 0.1 µM, respectively.

As for `COc1ccccc1C#Cc1cnccc1-c1[nH]c2c(c1Nc1cccc(Cl)c1OC)C(=O)NCC2` [compound 497], the results for the concentration for half-maximal inhibition (IC50) (at Ba/F3 cells with EGFR WT; in assay [1]) were 0.1 to 1 µM and below 0.1 µM, respectively.

Take `COc1c(Cl)cccc1Nc1c(-c2ccncc2C#CC2(OC)COC2)[nH]c2c1C(=O)NCC2` [compound 491]: the IC50 on Ba/F3 cells with EGFR WT is 0.1 to 1 µM; in assay [1], below 0.1 µM.

As to `Cc1c(F)cccc1Nc1c(-c2ccncc2C#CCN2CCOCC2)[nH]c2c1C(=O)NCC2` [compound 505], the IC50 (at Ba/F3 cells with EGFR WT; in assay [1]) was above 1 µM in each case.

`Cc1c(F)cccc1Nc1c(-c2ccncc2C#Cc2cnn(C)c2)[nH]c2c1C(=O)NCC2` [compound 506]: the values for the IC50 (at Ba/F3 cells with EGFR WT; in assay [1]) were above 1 µM and 0.1 to 1 µM, respectively.

`COc1c(F)cccc1Nc1c(-c2ccncc2C#C[C@H]2CCC[C@H]2OC)[nH]c2c1C(=O)NCC2` [compound 485]: the IC50 on Ba/F3 cells with EGFR WT is 0.1 to 1 µM; in assay [1], below 0.1 µM.

As for `COc1c(F)cccc1Nc1c(-c2ccncc2C#CC2CCCO2)[nH]c2c1C(=O)NCC2` (single isomer, unassigned) [Compound 148b], the IC50 on Ba/F3 cells with EGFR WT is above 1 µM; in assay [1], 0.1 to 1 µM.

Take `COC(C)C#Cc1cnccc1-c1[nH]c2c(c1Nc1cccc(F)c1C)C(=O)NCC2` (stereo not drawn) [compound 524]: the IC50 on Ba/F3 cells with EGFR WT was above 1 µM; in assay [1], 0.1 to 1 µM.

Regarding `COc1ccc(C#Cc2cnccc2-c2[nH]c3c(c2Nc2cccc(F)c2C)C(=O)NCC3)cn1` [compound 502], the IC50 on Ba/F3 cells with EGFR WT is above 1 µM; in assay [1] it was 0.1 to 1 µM.

On to `C=CC(=O)N1CC(F)(F)C[C@H]1C#Cc1cnccc1-c1[nH]c2c(c1Nc1cccc(Cl)c1OC)C(=O)NCC2` [compound 520], for which the IC50 (on Ba/F3 cells with EGFR WT; in assay [1]) was below 0.1 µM throughout.

As for `Cc1c(F)cccc1Nc1c(-c2ccncc2C#CC2COC2)[nH]c2c1C(=O)NCC2` [compound 509], the IC50 at Ba/F3 cells with EGFR WT was above 1 µM; in assay [1] it was 0.1 to 1 µM.

In the case of `COc1c(Cl)cccc1Nc1c(-c2ccncc2C#CC2CCC2)[nH]c2c1C(=O)NCC2` [compound 525], the IC50 at Ba/F3 cells with EGFR WT was above 1 µM; in assay [1], below 0.1 µM.

Turning to `COc1c(Cl)cccc1Nc1c(-c2ccncc2C#CC2CC(F)(F)C2)[nH]c2c1C(=O)NCC2` [compound 548], the half-maximal inhibitory concentration (IC50) was above 1 µM at Ba/F3 cells with EGFR WT and 0.1 to 1 µM in assay [1].

Consider `C=CC(=O)N1CCC1C#Cc1cnccc1-c1[nH]c2c(c1Nc1cccc(F)c1OC)C(=O)NCC2` (stereo not drawn) [compound 544], for which the IC50 (at Ba/F3 cells with EGFR WT; in assay [1]) was below 0.1 µM in each case.

Regarding `COc1c(F)cccc1Nc1c(-c2ccncc2C#C[C@@H]2CCCO2)[nH]c2c1C(=O)NCC2` (single isomer, unassigned) [Compound 148a], the 50% inhibitory concentration (IC50) was above 1 µM on Ba/F3 cells with EGFR WT and 0.1 to 1 µM in assay [1].

Take `Cc1c(F)cccc1Nc1c(-c2ccncc2C#CC2CC2)[nH]c2c1C(=O)NCC2` [compound 498]: the IC50 was above 1 µM on Ba/F3 cells with EGFR WT and 0.1 to 1 µM in assay [1].
